Source: patent publication US20230271964A1, “5-AMINO-8-(4-PYRIDYL)-[1,2,4]TRIAZOLO[4,3-C]PYRIMIDIN-3-ONE COMPOUNDS FOR USE AGAINST CANCER” (ASTRAZENECA AB, priority 2020, published 2023)

What was measured:
[1] = biological target: human adenosine A1 receptor (Homo sapiens (Human), UniProt P30542); assay: Adenosine receptor inhibition binding assay, [3H]DPCPX, A1 receptor membranes; conditions: 1 nM [3H]DPCPX, 25° C., 1 h, Ki from IC50 by Cheng-Prusoff; for Ki: read-out: A1 pKi (converted)
Method: (§1) Inhibition binding assays were performed using 0.2 µg of membranes prepared from HEK293 cells infected with BacMam human adenosine A2A receptor or 1.4 µg of membranes prepared from HEK293 cells infected with BacMam human adenosine A1 receptor. Membranes were incubated in 50 mM Tris-HCl (HEK293-hA2A; pH 7.4) or 50 mM Tris-HCl, 100 mM NaCl, 10 mM MgCl2 (CHO-hA1; pH 7.4) in the presence of varying concentrations of test compound and 1 nM [^3H]ZM241385 (HEK293-hA2A) or [^3H]DPCPX (CHO-hA1) at 25° C. for 1 h. The assay was then terminated by rapid filtration onto GF/B grade Unifilter plates using a TomTec cell harvester, followed by 5 × 0.5 ml washes with ddH2O. Nonspecific binding was defined in the presence of 1 µM CGS 15943 (HEK293-hA2A) or 1 µM DPCPX (CHO-hA1). Bound radioactivity was determined by liquid scintillation counting and inhibition curves were analysed using a four-parameter logistic equation. IC50 values were converted to Ki values with the Cheng-Prusoff equation using a KD value derived from saturation binding studies.

[2] = biological target: human adenosine A2A receptor (Homo sapiens (Human), UniProt P29274); assay: Adenosine receptor inhibition binding assay, [3H]ZM241385, HEK293 A2A receptor membranes; conditions: 1 nM [3H]ZM241385, HEK293-hA2A membranes, 25° C., 1 h, Ki from IC50 by Cheng-Prusoff; for Ki: read-out: A2A pKi (converted)
Method: as §1

Sequence of human adenosine A1 receptor (P30542 whole entry): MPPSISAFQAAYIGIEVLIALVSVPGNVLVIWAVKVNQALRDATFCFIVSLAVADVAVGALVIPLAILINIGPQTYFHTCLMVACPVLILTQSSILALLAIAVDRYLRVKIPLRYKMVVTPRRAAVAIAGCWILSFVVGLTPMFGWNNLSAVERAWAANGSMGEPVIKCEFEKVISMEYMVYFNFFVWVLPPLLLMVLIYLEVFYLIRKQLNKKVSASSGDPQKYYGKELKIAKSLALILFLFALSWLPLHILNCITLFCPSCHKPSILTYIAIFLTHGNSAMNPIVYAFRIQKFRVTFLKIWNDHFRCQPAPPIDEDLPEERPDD
Sequence of human adenosine A2A receptor (P29274 whole entry): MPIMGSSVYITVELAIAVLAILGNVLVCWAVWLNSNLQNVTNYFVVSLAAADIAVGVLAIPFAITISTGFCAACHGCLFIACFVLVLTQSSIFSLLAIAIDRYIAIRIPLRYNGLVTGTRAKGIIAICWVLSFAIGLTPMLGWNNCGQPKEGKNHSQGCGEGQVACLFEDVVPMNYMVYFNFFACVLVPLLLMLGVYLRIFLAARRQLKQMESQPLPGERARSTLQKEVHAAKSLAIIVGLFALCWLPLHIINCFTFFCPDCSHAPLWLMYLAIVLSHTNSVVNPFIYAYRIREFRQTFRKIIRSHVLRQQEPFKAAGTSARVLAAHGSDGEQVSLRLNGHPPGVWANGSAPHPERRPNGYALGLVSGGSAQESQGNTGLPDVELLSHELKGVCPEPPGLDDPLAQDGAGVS

Row | SMILES | A1 pKi [1] | A2A pKi [2] | Ki [1] | Ki [2]
1 | Cc1cc(-c2c(-c3ccccc3)nc(N)n3c(=O)n(Cc4nonc4C)nc23)cc(C)n1 [Example 1-19, 5-amino-8-(2,6-dimethyl-4-pyridyl)-2-[(4-methyl-1,2,5-oxadiazol-3-yl)methyl]-7-phenyl-[1,2,4]triazolo[4,3-c]pyrimidin-3-one] | 7.2 | 9.6 |  | 
2 | Cc1cc(-c2c(-c3ccccc3)nc(N)n3c(=O)n(Cc4nncn4C)nc23)cc(C)n1 [Example 1-28, 5-amino-8-(2,6-dimethyl-4-pyridyl)-2-[(4-methyl-1,2,4-triazol-3-yl)methyl]-7-phenyl-[1,2,4]triazolo[4,3-c]pyrimidin-3-one] | 6.5 | 7.7 |  | 
3 | Cc1cc(-c2c(-c3ccccc3)nc(N)n3c(=O)n(Cc4cncn4C)nc23)cc(C)n1 [Example 1-18, 5-amino-8-(2,6-dimethyl-4-pyridyl)-2-[(3-methylimidazol-4-yl)methyl]-7-phenyl-[1,2,4]triazolo[4,3-c]pyrimidin-3-one] | 6.9 | 8.5 |  | 
4 | CCn1nccc1CCn1nc2c(-c3cc(C)nc(C)c3)c(-c3ccccc3)nc(N)n2c1=O [Example 1-7, 5-amino-8-(2,6-dimethyl-4-pyridyl)-2-[2-(2-ethylpyrazol-3-yl)ethyl]-7-phenyl-[1,2,4]triazolo[4,3-c]pyrimidin-3-one] | 6.6 | 8.0 |  | 
5 | Cc1cc(-c2c(-c3ccccc3)nc(N)n3c(=O)n(Cc4nnc(C)o4)nc23)cc(C)n1 [Example 1-17, 5-amino-8-(2,6-dimethyl-4-pyridyl)-2-[(5-methyl-1,3,4-oxadiazol-2-yl)methyl]-7-phenyl-[1,2,4]triazolo[4,3-c]pyrimidin-3-one] | 6.2 | 8.2 |  | 
6 | Cc1cc(-c2c(-c3ccccc3)nc(N)n3c(=O)n(Cc4nccn4C)nc23)cc(C)n1 [Example 1-11, 5-amino-8-(2,6-dimethyl-4-pyridyl)-2-[(1-methylimidazol-2-yl)methyl]-7-phenyl-[1,2,4]triazolo[4,3-c]pyrimidin-3-one] | 7.8 | 9.8 |  | 
7 | Cc1cc(-c2c(-c3ccccc3)nc(N)n3c(=O)n(Cc4ncco4)nc23)cc(C)n1 [Example 1-9, 5-amino-8-(2,6-dimethyl-4-pyridyl)-2-(oxazol-2-ylmethyl)-7-phenyl-[1,2,4]triazolo[4,3-c]pyrimidin-3-one] | 7.0 | 9.1 |  | 
8 | Cc1cc(-c2c(-c3ccccc3)nc(N)n3c(=O)n(Cc4nn[nH]n4)nc23)cc(C)n1 [Example 1-26, 5-amino-8-(2,6-dimethyl-4-pyridyl)-7-phenyl-2-(2H-tetrazol-5-ylmethyl)-[1,2,4]triazolo[4,3-c]pyrimidin-3-one] | <5.4 | 6.4 |  | 
9 | Cc1cc(-c2c(-c3ccccc3)nc(N)n3c(=O)n(Cc4nn[nH]c4C)nc23)cc(C)n1 [Example 1-29, 5-amino-8-(2,6-dimethylpyridin-4-yl)-2-((5-methyl-1H-1,2,3-triazol-4-yl)methyl)-7-phenyl-[1,2,4]triazolo[4,3-c]pyrimidin-3(2H)-one] | 7.0 | 8.6 |  | 
10 | Cc1cc(-c2c(-c3ccccc3)nc(N)n3c(=O)n(CCc4ncc[nH]4)nc23)cc(C)n1 [Example 1-3, 5-amino-8-(2,6-dimethyl-4-pyridyl)-2-[2-(1H-imidazol-2-yl)ethyl]-7-phenyl-[1,2,4]triazolo[4,3-c]pyrimidin-3-one] | 5.9 | 7.9 |  | 
11 | Cc1cc(-c2c(-c3ccccc3)nc(N)n3c(=O)n(Cc4ccn[nH]4)nc23)cc(C)n1 [Example 1-25, 5-amino-8-(2,6-dimethyl-4-pyridyl)-7-phenyl-2-(1H-pyrazol-5-ylmethyl)-[1,2,4]triazolo[4,3-c]pyrimidin-3-one] | 7.1 | 8.6 |  | 

Now from value to compound:

Row | A1 pKi [1] | A2A pKi [2] | Ki [1] | Ki [2] | SMILES
12 | 7.2 | 9.1 |  |  | Cc1cc(-c2c(-c3ccccc3)nc(N)n3c(=O)n(Cc4nccn4C)nc23)cc(CO)n1 [Example 1-41, 5-amino-8-[2-(hydroxymethyl)-6-methyl-4-pyridyl]-2-[(1-methylimidazol-2-yl)methyl]-7-phenyl-[1,2,4]triazolo[4,3-c]pyrimidin-3-one]
13 | 6.9 | 8.8 |  |  | Cc1cc(-c2c(-c3ccccc3)nc(N)n3c(=O)n(Cc4ncco4)nc23)cc(CO)n1 [Example 1-40, 5-amino-8-[2-(hydroxymethyl)-6-methyl-4-pyridyl]-2-(oxazol-2-ylmethyl)-7-phenyl-[1,2,4]triazolo[4,3-c]pyrimidin-3-one]
14 | 7.2 | 9.7 |  |  | Cc1ocnc1Cn1nc2c(-c3cc(Cl)nc(CO)c3)c(-c3ccccc3)nc(N)n2c1=O [Example 1-54, 5-amino-8-[2-chloro-6-(hydroxymethyl)-4-pyridyl]-2-[(5-methyloxazol-4-yl)methyl]-7-phenyl-[1,2,4]triazolo[4,3-c]pyrimidin-3-one]
15 |  |  | 316 nM | 1.58 nM | [2H]c1c([2H])c([2H])c(-c2nc(N)n3c(=O)n(Cc4cocn4)nc3c2-c2cc(C)nc(CO)c2)c([2H])c1[2H] [Example 1-49, 5-amino-8-[2-(hydroxymethyl)-6-methyl-4-pyridyl]-2-(oxazol-4-ylmethyl)-7-(2,3,4,5,6-pentadeuteriophenyl)-[1,2,4]triazolo[4,3-c]pyrimidin-3-one]
16 | 6.3 | 8.2 |  |  | COCCN1CCC[C@@H]1Cn1nc2c(-c3cc(C)nc(C)c3)c(-c3ccccc3)nc(N)n2c1=O [Example 2-10, 5-amino-8-(2,6-dimethyl-4-pyridyl)-2-[[(2R)-1-(2-methoxyethyl)pyrrolidin-2-yl]methyl]-7-phenyl-[1,2,4]triazolo[4,3-c]pyrimidin-3-one]
17 | 5.9 | 8.2 |  |  | Cc1cc(-c2c(-c3ccccc3)nc(N)n3c(=O)n(C[C@@H]4C[C@H](O)CN4)nc23)cc(C)n1 [Example 2-22, 5-amino-8-(2,6-dimethyl-4-pyridyl)-2-[[(2S,4S)-4-hydroxypyrrolidin-2-yl]methyl]-7-phenyl-[1,2,4]triazolo[4,3-c]pyrimidin-3-one]
18 | 6.3 | 8.2 |  |  | Cc1cc(-c2c(-c3ccccc3)nc(N)n3c(=O)n(C[C@@H]4CC(F)(F)CN4C)nc23)cc(C)n1 [Example 2-13, 5-amino-2-[[(2S)-4,4-difluoro-1-methyl-pyrrolidin-2-yl]methyl]-8-(2,6-dimethyl-4-pyridyl)-7-phenyl-[1,2,4]triazolo[4,3-c]pyrimidin-3-one]
19 | 7.1 | 8.1 |  |  | COc1cccc(-c2nn(Cc3ccccc3)cc2Cn2nc3c(-c4cc(C)nc(C)c4)c(-c4ccccc4)nc(N)n3c2=O)c1 [Example 1-33, 5-amino-2-[[1-benzyl-3-(3-methoxyphenyl)pyrazol-4-yl]methyl]-8-(2,6-dimethyl-4-pyridyl)-7-phenyl-[1,2,4]triazolo[4,3-c]pyrimidin-3-one]
20 | 6.4 | 8.1 |  |  | Cc1cc(-c2c(-c3ccccc3)nc(N)n3c(=O)n(C[C@H]4CC(F)(F)CN4)nc23)cc(C)n1 [Example 2-12, 5-amino-2-[[(2R)-4,4-difluoropyrrolidin-2-yl]methyl]-8-(2,6-dimethyl-4-pyridyl)-7-phenyl-[1,2,4]triazolo[4,3-c]pyrimidin-3-one]
21 | 7.5 | 9.2 |  |  | Cc1ocnc1Cn1nc2c(-c3cc(C)[n+]([O-])c(C)c3)c(-c3ccccc3)nc(N)n2c1=O [Example 1-34, 5-amino-8-(2,6-dimethyl-1-oxido-pyridin-1-ium-4-yl)-2-[(5-methyloxazol-4-yl)methyl]-7-phenyl-[1,2,4]triazolo[4,3-c]pyrimidin-3-one]
22 |  |  | 1260 nM | 0.794 nM | [2H]c1c([2H])c([2H])c(-c2nc(N)n3c(=O)n(C[C@H]4CCCO4)nc3c2-c2cc(CO)nc(OC)c2)c([2H])c1[2H] [Example 2-36, 5-amino-8-[2-(hydroxymethyl)-6-methoxy-4-pyridyl]-7-(2,3,4,5,6-pentadeuteriophenyl)-2-[[(2R)-tetrahydrofuran-2-yl]methyl]-[1,2,4]triazolo[4,3-c]pyrimidin-3-one]
23 | 6.3 | 8.5 |  |  | Cc1cc(-c2c(-c3ccccc3)nc(N)n3c(=O)n(C[C@@H]4C[C@H](F)CN4)nc23)cc(C)n1 [Example 2-20, 5-amino-8-(2,6-dimethyl-4-pyridyl)-2-[[(2S,4S)-4-fluoropyrrolidin-2-yl]methyl]-7-phenyl-[1,2,4]triazolo[4,3-c]pyrimidin-3-one]
24 | 7.2 | 9.3 |  |  | Cc1cc(-c2c(-c3ccccc3)nc(N)n3c(=O)n(Cc4ccn(C)n4)nc23)cc(CO)n1 [Example 1-45, 5-amino-8-[2-(hydroxymethyl)-6-methyl-4-pyridyl]-2-[(1-methylpyrazol-3-yl)methyl]-7-phenyl-[1,2,4]triazolo[4,3-c]pyrimidin-3-one]
